Among the data in patent US7977387B2, “Aminobenzophenone compounds” (Leo Pharma A/S, priority 2003, dated 2011) are inhibition and IC50 values, retold here.

SMILES strings stand for the structures.

For assay [1], the system named is LPS induced TNF-α response. Kind of assay: In vivo screening model of LPS induced TNF-α response in mice. The following applies: Mus musculus, mice (C3H/HeN), dosed 1 hour prior to LPS, plasma TNF-α 80-90 minutes after LPS, vs LPS treated control group, read-out: In vivo inhibition of LPS induced TNF-α production (in %). As to the method:
In Vivo Screening Model of LPS Induced TNF-α Response in Mice
To study the effect of compounds of the present invention in vivo, an in vivo screening model of LPS induced TNF-α response in mice was set up as follows: Groups of 6 mice (C3H/HeN, female, about 8 weeks (20 g), Bomholtgaard) were dosed with test compounds in suspension vehicle 1 hour prior to LPS administration (LPS from E. coli 055:B5, L-4005, Sigma). At time 0, the mice were dosed ip with 1.0 mg LPS/kg. After anesthetization with Hypnorm/Dormicum, the mice were bled from the periorbital venous plexus 80-90 minutes after LPS administration. The blood samples were sampled in EDTA stabilised tubes and centrifuged at 4000 rpm for 10 minutes at 4° C. The plasma level of TNF-α was analysed by ELISA. Compound 156 of WO 98/32730 was used as reference compound. The plasma level of TNF-α was determined using a sandwich ELISA. Microtiter plates were coated with a monoclonal antibody against mouse TNF-α, washed and blocked with a casein buffer. Samples of mouse TNF-α recombinant standards were added to the wells of the microtiter plates and incubated. All standards were tested in triplicate, all plasma samples in single. After sample and standard incubation, the plates were washed and incubated with biotinylated polyclonal secondary antibody against mouse TNF-α and washed. Enzyme conjugate was added to all wells and incubated. Substrate was added and the enzyme/substrate reaction stopped after 15 minutes at room temperature with 1M H2SO4. The colour development (OD) was measured at 450 nm on an ELISA reader and the background OD at 620 nm was subtracted. […] The results of the tested compounds are indicated as a percentage inhibition compared to an LPS treated control group. Compounds were tested at 10 mg/kg. The Mann-Whitney test was used to compare drug treated groups to the LPS treated control group (p<0.05).

The subject of assay [2] is IL-1β. Kind of assay: Inhibition of IL-1β secretion in LPS stimulated peripheral blood mononuclear cells. The format is cell-based. The following applies: PBMC; LPS stimulated human peripheral blood mononuclear cells, 18 hours, ELISA; read-out: The median inhibition concentration (IC50, nM) of IL-1β. Put shortly: (§1)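 Human PBMCs (5×10^5 cells/ml, RPMI 1640 + 2% FCS) pre-treated with compound 30 min, then stimulated with LPS ([…]) for 18 h. Secreted IL-1β and TNF-α quantified by ELISA; IC50 values calculated.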

For assay [3], the system named is TNF-α. The assay is described as follows: Inhibition of TNF-α secretion in LPS stimulated peripheral blood mononuclear cells. Format: cell-based. The following applies: PBMC; LPS stimulated human peripheral blood mononuclear cells, 18 hours, ELISA; read-out: The median inhibition concentration (IC50, nM) of TNF-α. The procedure, abridged:
as §1

With `Cc1ccc(C(=O)NCCO)cc1C(=O)c1ccc(Nc2ccc(F)cc2F)cc1Cl` [Compound 115, 3-[2-Chloro-4-(2,4-difluorophenylamino)benzoyl]-N-(2-hydroxyethyl)-4-methylbenzamide], the inhibition at 10 mg/kg in assay [1] came to 96%. For the same compound, the IC50 is 1.3 nM in assay [2] and 0.3 nM in assay [3].

Take `COCCNC(=O)c1ccc(C)c(C(=O)c2ccc(Nc3ccccc3N)cc2Cl)c1` [Compound 116, 3-[4-(2-Aminophenylamino)-2-chlorobenzoyl]-N-(2-methoxyethyl)-4-methylbenzamide]: in assay [1], the inhibition at 10 mg/kg amounted to 95%. Also, the IC50 in assay [2] and in assay [3] was 1 nM in each case.

As to `CCNC(=O)c1ccc(C)c(C(=O)c2ccc(Nc3ccccc3N)cc2Cl)c1` [Compound 117, 3-[4-(2-Aminophenylamino)-2-chlorobenzoyl]-N-ethyl-4-methylbenzamide], the inhibition at 10 mg/kg in assay [1] came out at 71%. Also, the figures for the IC50 in assay [2] and in assay [3] were 4 nM and 1 nM, respectively.

`Cc1ccc(C(=O)NCCO)cc1C(=O)c1ccc(Nc2ccc(Cl)cc2F)cc1Cl` [Compound 120, 3-[2-Chloro-4-(4-chloro-2-fluoro-phenylamino)-benzoyl]-N-(2-hydroxy-ethyl)-4-methyl-benzamide]: in assay [1], the inhibition at 10 mg/kg stood at 86%. Moreover, the IC50 in assay [2] turned out to be 2.7 nM; in assay [3], 2 nM.

Turning to `CCOC(=O)CNC(=O)c1ccc(C)c(C(=O)c2ccc(Nc3ccc(Cl)cc3F)cc2Cl)c1` [Compound 123, {3-[2-Chloro-4-(4-chloro-2-fluoro-phenylamino)-benzoyl]-4-methyl-benzoylamino}acetic acid ethyl ester], the inhibition at 10 mg/kg in assay [1] is 47%. Also, the results for the IC50 in assay [2] and in assay [3] were 0.5 nM and 0.3 nM, respectively.

For the compound `CCNC(=O)c1ccc(C)c(C(=O)c2ccc(Nc3ccc(Cl)cc3F)cc2Cl)c1` [Compound 126, 3-[2-Chloro-4-(4-chloro-2-fluoro-phenylamino)-benzoyl]-N-ethyl-4-methyl-benzamide], the inhibition at 10 mg/kg in assay [1] is 79%. Besides, the IC50 in assay [2] amounted to 2.8 nM; in assay [3], 0.6 nM.

For `Cc1ccc(C(=O)NCC(C)C)cc1C(=O)c1ccc(Nc2ccc(Cl)cc2F)cc1Cl` [Compound 129, 3-[2-Chloro-4-(4-chloro-2-fluoro-phenylamino)-benzoyl]-N-isobutyl-4-methyl-benzamide], the inhibition at 10 mg/kg in assay [1] stood at 73%. Besides, the IC50 in assay [2] worked out at 2.5 nM; in assay [3] it was 1.3 nM.

Turning to `COCCCNC(=O)c1ccc(C)c(C(=O)c2ccc(Nc3ccc(Cl)cc3F)cc2Cl)c1` [Compound 131, 3-[2-Chloro-4-(4-chloro-2-fluoro-phenylamino)-benzoyl]-N-(3-methoxy-propyl)-4-methyl-benzamide], in assay [1], the inhibition at 10 mg/kg turned out to be 70%. Moreover, the IC50 in assay [2] amounted to 3.2 nM; in assay [3], 1.3 nM.

As to `COc1ccc(C(=O)NCCO)cc1C(=O)c1ccc(Nc2ccc(F)cc2F)cc1Cl` [Compound 140, 3-[2-Chloro-4-(2,4-difluoro-phenylamino)-benzoyl]-N-(2-hydroxy-ethyl)-4-methoxy-benzamide], the inhibition at 10 mg/kg in assay [1] was determined as 76%. Moreover, the IC50 was determined as 1.4 nM in assay [2] and 1 nM in assay [3].

With `COc1ccc(C(=O)NCC(F)F)cc1C(=O)c1ccc(Nc2ccc(F)cc2F)cc1Cl` [Compound 141, 3-[2-Chloro-4-(2,4-difluoro-phenylamino)-benzoyl]-N-(2,2-difluoro-ethyl)-4-methoxy-benzamide], the inhibition at 10 mg/kg in assay [1] turned out to be 46%. The IC50 amounted to 0.9 nM in assay [2] and 0.6 nM in assay [3].

As to `Cc1ccc(C(=O)NCC(N)=O)cc1C(=O)c1ccc(Nc2ccc(F)cc2F)cc1Cl` [Compound 145, N-Carbamoylmethyl-3-[2-chloro-4-(2,4-difluoro-phenylamino)-benzoyl]-4-methyl-benzamide], the inhibition at 10 mg/kg in assay [1] was found to be 94%. Moreover, the IC50 in assay [2] stood at 1.3 nM; in assay [3], 0.3 nM.

Consider `Cc1ccc(C(=O)NCCF)cc1C(=O)c1ccc(Nc2ccc(F)cc2F)cc1Cl` [Compound 147, 3-[2-Chloro-4-(2,4-difluoro-phenylamino)-benzoyl]-N-(2-fluoro-ethyl)-4-methyl-benzamide], for which the inhibition at 10 mg/kg in assay [1] came to 89%. Further, the IC50 in assay [2] was found to be 2.5 nM; in assay [3], 0.8 nM.

In the case of `Cc1ccc(C(=O)NCC(F)(F)F)cc1C(=O)c1ccc(Nc2ccc(F)cc2F)cc1Cl` [Compound 148, 3-[2-Chloro-4-(2,4-difluoro-phenylamino)-benzoyl]-4-methyl-N-(2,2,2-trifluoro-ethyl) benzamide], in assay [1], the inhibition at 10 mg/kg is 71%. Moreover, the IC50 in assay [2] is 0.6 nM; in assay [3], 0.2 nM.

Consider `CCNC(=O)c1ccc(C)c(C(=O)c2ccc(Nc3ccc(F)cc3F)cc2Cl)c1` [Compound 149, 3-[2-Chloro-4-(2,4-difluoro-phenylamino)-benzoyl]-N-ethyl-4-methyl-benzamide], for which the inhibition at 10 mg/kg in assay [1] amounted to 89%. Also, the IC50 in assay [2] came out at 1.6 nM; in assay [3], 0.5 nM.

With `Cc1ccc(C(=O)NCC(C)O)cc1C(=O)c1ccc(Nc2ccc(F)cc2F)cc1Cl` (stereo not drawn) [Compound 151, 3-[2-Chloro-4-(2,4-difluoro-phenylamino)-benzoyl]-N-(2-hydroxy-propyl)-4-methyl-benzamide], the inhibition at 10 mg/kg in assay [1] came to 99%. Also, the figures for the IC50 in assay [2] and in assay [3] were 1.8 nM and 0.4 nM, respectively.

For `Cc1ccc(C(=O)NCC(O)CO)cc1C(=O)c1ccc(Nc2ccc(F)cc2F)cc1Cl` (stereo not drawn) [Compound 152, 3-[2-Chloro-4-(2,4-difluoro-phenylamino)-benzoyl]-N-(2,3-dihydroxy-propyl)-4-methyl-benzamide], in assay [1], the inhibition at 10 mg/kg is 99%. The IC50 in assay [2] worked out at 2.8 nM; in assay [3], 0.6 nM.

For `CCC(CO)NC(=O)c1ccc(C)c(C(=O)c2ccc(Nc3ccc(F)cc3F)cc2Cl)c1` (stereo not drawn) [Compound 153, 3-[2-Chloro-4-(2,4-difluoro-phenylamino)-benzoyl]-N-(1-hydroxymethyl-propyl)-4-methyl-benzamide], the inhibition at 10 mg/kg in assay [1] amounted to 86%. Further, the IC50 worked out at 8.9 nM in assay [2] and 1.6 nM in assay [3].

As for `Cc1ccc(C(=O)NCCCO)cc1C(=O)c1ccc(Nc2ccc(F)cc2F)cc1Cl` [Compound 155, 3-[2-Chloro-4-(2,4-difluoro-phenylamino)-benzoyl]-N-(3-hydroxy-propyl)-4-methyl-benzamide], the inhibition at 10 mg/kg in assay [1] was found to be 91%. Besides, the figures for the IC50 in assay [2] and in assay [3] were 0.6 nM and 0.2 nM, respectively.

Turning to `Cc1ccc(C(=O)NC(C)(C)CO)cc1C(=O)c1ccc(Nc2ccc(F)cc2F)cc1Cl` [Compound 156, 3-[2-Chloro-4-(2,4-difluoro-phenylamino)-benzoyl]-N-(2-hydroxy-1,1-dimethyl-ethyl)-4-methyl-benzamide], in assay [1], the inhibition at 10 mg/kg was 73%. Moreover, the IC50 in assay [2] was 4.5 nM; in assay [3], 0.9 nM.

For `Cc1ccc(C(=O)NC(C)(CO)CO)cc1C(=O)c1ccc(Nc2ccc(F)cc2F)cc1Cl` [Compound 157, 3-[2-Chloro-4-(2,4-difluoro-phenylamino)-benzoyl]-N-(2-hydroxy-1-hydroxymethyl-1-methyl-ethyl)-4-methyl-benzamide], the inhibition at 10 mg/kg in assay [1] turned out to be 83%. For the same compound, the IC50 worked out at 2.2 nM in assay [2] and 0.9 nM in assay [3].

As to `Cc1ccc(C(=O)NCCF)cc1C(=O)c1ccc(Nc2ccc(F)cc2F)cc1` [Compound 163, 3-[4-(2,4-Difluoro-phenylamino)-benzoyl]-N-(2-fluoro-ethyl)-4-methyl-benzamide], the inhibition at 10 mg/kg in assay [1] was determined as 66%. The IC50 in assay [2] and in assay [3] was 2.5 nM each time.

Regarding `Cc1ccc(C(=O)NC(C)C)cc1C(=O)c1ccc(Nc2ccc(F)cc2F)cc1Cl` [Compound 164, 3-[2-Chloro-4-(2,4-difluoro-phenylamino)-benzoyl]-N-isopropyl-4-methyl-benzamide], the inhibition at 10 mg/kg in assay [1] was 76%. In addition, the IC50 in assay [2] turned out to be 1.3 nM; in assay [3], 2 nM.

As for `Cc1ccc(C(=O)NCC(F)F)cc1C(=O)c1ccc(Nc2ccc(F)cc2F)cc1Cl` [Compound 166], the inhibition at 10 mg/kg in assay [1] worked out at 83%. For the same compound, the IC50 in assay [2] was 0.5 nM; in assay [3] it was 0.4 nM.
